Reference: patent publication US20040077728A1, “Retiferol derivatives and their use in the treatment of skin diseases or conditions associated with photodamage” (priority 2000, published 2004)

Test: Calcium liability (tolerance test in mice)
Format: in vivo
Conditions: mice (25-30 g), daily subcutaneous administration for 4 consecutive days; dose giving zero weight gain over the 5-day treatment period
Text: Calcium Liability (Tolerance Test in Mice):
This test gives a global picture of calcemic liability. Profound changes in calcium homeostasis strongly affect the weight development of the animals. This parameter was used as a primary test for tolerance. Mice (25-30 g body weight) received daily subcutaneous administrations of the vitamin D derivative for 4 consecutive days. Body weight was registered just before and at the end of a 5-day treatment period. The “highest tolerated dose” (HTDsc) in mice is the dose which results in zero weight gain during this treatment period.

Structure (SMILES): C=C1/C(=C\C=C2/CCC[C@]3(C)[C@@H]([C@H](C)CCCC(C)(C)O)CC[C@@H]23)C[C@@H](O)C[C@@H]1O [calcitriol]
- HTDs.c. highest tolerated dose without weight loss: 1 µg/kg
